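All cell lines were grown in 96-well plates and treated with compound for 48 hours. At the GI50, growth is halved.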 The source made the active and inactive calls. Rule as the data show it: active = GI50 up to about 1.1 µM and inactive = higher.
What was measured:
Assay in all cases: NCI anticancer screen, dose series, 48 h
[1] = tested on: HCC 2998
[2] = tested on: M19-MEL
[3] = tested on: EKVX
[4] = tested on: M14
[5] = tested on: TK-10
[6] = tested on: SF-539
[7] = tested on: HOP-62
[8] = tested on: SW-620
[9] = tested on: RPMI-8226
[10] = tested on: NCI-H522
[11] = tested on: SNB-19
[12] = tested on: HT-29
[13] = tested on: DMS-273
[14] = tested on: ACHN
[15] = tested on: K562
[16] = tested on: UACC-257
[17] = tested on: MOLT-4
[18] = tested on: SK-OV-3
[19] = tested on: SR
[20] = tested on: KM12
[21] = tested on: NCI-H23
[22] = tested on: UACC-62
[23] = tested on: SNB-78
[24] = tested on: A549
[25] = tested on: CCRF-CEM
[26] = tested on: SK-MEL-28
[27] = tested on: SN12C
[28] = tested on: LOX IMVI
[29] = tested on: IGROV-1
[30] = tested on: LXFL 529
[31] = tested on: COLO 205
[32] = tested on: HL-60
[33] = tested on: OVCAR-8
[34] = tested on: NCI-H460
[35] = tested on: Malme-3M
[36] = tested on: DLD-1
[37] = tested on: UO-31
[38] = tested on: U-251
[39] = tested on: HCT-15
[40] = tested on: 786-0
[41] = tested on: OVCAR-4
[42] = tested on: HCT-116
[43] = tested on: NCI-H226
[44] = tested on: A498
[45] = tested on: SK-MEL-2
[46] = tested on: OVCAR-3
[47] = tested on: SNB-75
[48] = tested on: XF498
[49] = tested on: SK-MEL-5
[50] = tested on: OVCAR-5
[51] = tested on: DMS-114
[52] = tested on: KM-20L2
[53] = tested on: SF-268
[54] = tested on: CAKI-1
[55] = tested on: SF-295
[56] = tested on: HOP-18

`CN(C)c1cccc(-c2cc(O)c3ccccc3n2)c1` was tested, and the GI50 [1] was 40.4 µM (inactive), the GI50 [2] was 76.7 µM (inactive) and the GI50 [3] was > 100 µM (inactive). For the same compound, the GI50 [4] was 43.3 µM (inactive), the GI50 [5] was > 100 µM (inactive) and the GI50 [6] was 30.4 µM (inactive). For the same compound, the GI50 [7] was 53.7 µM (inactive), the GI50 [8] was 37 µM (inactive) and the GI50 [9] was 34.8 µM (inactive). For the same compound, the GI50 [10] was 24.2 µM (inactive), the GI50 [11] was 39 µM (inactive) and the GI50 [12] was 25.2 µM (inactive). For the same compound, the GI50 [13] was 45.9 µM (inactive), the GI50 [14] was > 100 µM (inactive) and the GI50 [15] was > 10 µM (inactive). The GI50 [16] was 31.9 µM (inactive), the GI50 [17] was 61.5 µM (inactive) and the GI50 [18] was 68.1 µM (inactive). For the same compound, the GI50 [19] was 45.5 µM (inactive), the GI50 [20] was 34.4 µM (inactive) and the GI50 [21] was 54.8 µM (inactive). The GI50 [22] was 42 µM (inactive), the GI50 [23] was 82 µM (inactive) and the GI50 [24] was 57.3 µM (inactive). The GI50 [25] was 41.7 µM (inactive), the GI50 [26] was 86.1 µM (inactive) and the GI50 [27] was 47.8 µM (inactive). For the same compound, the GI50 [28] was 71.4 µM (inactive), the GI50 [29] was 80.9 µM (inactive) and the GI50 [30] was 57.7 µM (inactive). The GI50 [31] was 48.2 µM (inactive), the GI50 [32] was 28.2 µM (inactive) and the GI50 [33] was 75.9 µM (inactive). For the same compound, the GI50 [34] was 13.6 µM (inactive), the GI50 [35] was 31.7 µM (inactive) and the GI50 [36] was 26.8 µM (inactive). The GI50 [37] was 47.6 µM (inactive), the GI50 [38] was 55.8 µM (inactive) and the GI50 [39] was 44.4 µM. The GI50 [40] was 49.7 µM (inactive).

`N#CCCN(CCC#N)c1ccc(/C=C2\N=C(c3cc([N+](=O)[O-])ccc3Cl)OC2=O)cc1` was tested, and the GI50 [1] was 21.6 µM (inactive), the GI50 [2] was 20.5 µM (inactive) and the GI50 [3] was > 100 µM (inactive). For the same compound, the GI50 [41] was 30 µM (inactive), the GI50 [4] was 35.6 µM (inactive) and the GI50 [42] was > 100 µM (inactive). For the same compound, the GI50 [43] was 22.4 µM (inactive), the GI50 [6] was 40.3 µM (inactive) and the GI50 [7] was 35.4 µM (inactive). The GI50 [8] was 68.4 µM (inactive), the GI50 [9] was 88.7 µM (inactive) and the GI50 [10] was 14 µM (inactive). The GI50 [11] was 25.9 µM (inactive), the GI50 [12] was > 100 µM (inactive) and the GI50 [13] was > 100 µM (inactive). The GI50 [14] was > 100 µM (inactive), the GI50 [15] was 18.2 µM (inactive) and the GI50 [16] was 20 µM (inactive). The GI50 [44] was > 100 µM (inactive), the GI50 [17] was 24.2 µM (inactive) and the GI50 [45] was 20 µM (inactive). For the same compound, the GI50 [46] was 27.8 µM (inactive), the GI50 [18] was > 100 µM (inactive) and the GI50 [19] was 33.3 µM (inactive). The GI50 [47] was 23.9 µM (inactive), the GI50 [20] was 14.7 µM (inactive) and the GI50 [22] was 62.4 µM (inactive). The GI50 [24] was > 100 µM (inactive), the GI50 [26] was 52.6 µM (inactive) and the GI50 [48] was 35.4 µM (inactive). The GI50 [49] was 16 µM (inactive), the GI50 [27] was 19.9 µM (inactive) and the GI50 [28] was 23.7 µM (inactive). For the same compound, the GI50 [29] was > 100 µM (inactive), the GI50 [30] was 18.1 µM (inactive) and the GI50 [50] was > 100 µM (inactive). The GI50 [32] was 38.1 µM (inactive), the GI50 [51] was 25.4 µM (inactive) and the GI50 [33] was 19.1 µM (inactive). The GI50 [34] was 67.5 µM (inactive), the GI50 [35] was > 100 µM (inactive) and the GI50 [52] was > 100 µM (inactive). The GI50 [53] was 45.1 µM (inactive), the GI50 [54] was > 100 µM (inactive) and the GI50 [37] was > 100 µM (inactive). The GI50 [55] was 44.5 µM (inactive), the GI50 [38] was 17.6 µM (inactive) and the GI50 [39] was 53.2 µM. For the same compound, the GI50 [40] was 34.4 µM (inactive).

For `COc1cc(Nc2c3ccccc3nc3ccccc23)ccc1NS(C)(=O)=O`, the GI50 [1] was 14.2 µM (inactive), the GI50 [2] was 5.93 µM (inactive) and the GI50 [3] was 10 µM (inactive). The GI50 [41] was 3.61 µM (inactive), the GI50 [4] was 3.14 µM (inactive) and the GI50 [42] was 3.27 µM (inactive). For the same compound, the GI50 [43] was 11.2 µM (inactive), the GI50 [6] was 4.41 µM (inactive) and the GI50 [7] was 7.6 µM (inactive). For the same compound, the GI50 [8] was 2.61 µM (inactive), the GI50 [9] was 2.83 µM (inactive) and the GI50 [10] was 3.42 µM (inactive). For the same compound, the GI50 [11] was 5.73 µM (inactive), the GI50 [12] was 3.34 µM (inactive) and the GI50 [14] was 4.11 µM (inactive). The GI50 [15] was 34.4 µM (inactive), the GI50 [16] was 11.9 µM (inactive) and the GI50 [44] was 6.31 µM (inactive). For the same compound, the GI50 [17] was 40.7 µM (inactive), the GI50 [45] was 7.53 µM (inactive) and the GI50 [46] was 6.53 µM (inactive). The GI50 [18] was 14.7 µM (inactive), the GI50 [19] was 2.72 µM (inactive) and the GI50 [47] was 7.46 µM (inactive). The GI50 [20] was 6.97 µM (inactive), the GI50 [21] was > 10 µM (inactive) and the GI50 [22] was 6.61 µM (inactive). For the same compound, the GI50 [23] was 7.67 µM (inactive), the GI50 [24] was 2.42 µM (inactive) and the GI50 [56] was 13.3 µM (inactive). For the same compound, the GI50 [25] was 28.8 µM (inactive), the GI50 [26] was 7.52 µM (inactive) and the GI50 [49] was 6.53 µM (inactive). The GI50 [27] was 2.58 µM (inactive), the GI50 [28] was 2.67 µM (inactive) and the GI50 [29] was 10.4 µM (inactive). The GI50 [30] was 4.8 µM (inactive), the GI50 [50] was 11 µM (inactive) and the GI50 [31] was 3.48 µM (inactive). For the same compound, the GI50 [32] was 4.79 µM (inactive), the GI50 [51] was 6.58 µM (inactive) and the GI50 [33] was 4.5 µM (inactive). For the same compound, the GI50 [34] was 2.64 µM (inactive), the GI50 [35] was 7.66 µM (inactive) and the GI50 [52] was 4.46 µM (inactive). For the same compound, the GI50 [36] was 5.14 µM (inactive), the GI50 [53] was 4.39 µM (inactive) and the GI50 [54] was 3.02 µM (inactive). The GI50 [37] was 4.41 µM (inactive), the GI50 [55] was 3.84 µM (inactive) and the GI50 [38] was 4.59 µM (inactive).
